Source: PMC5409245, “An albumin-based tumor-targeted oxaliplatin prodrug with distinctly improved anticancer activity in vivo” (Chemical Science, 2016)

Tests used:
[1] = target: T1, albumin fraction of fetal calf serum (Bos taurus, UniProt P02769); assay: Binding studies in fetal calf serum by SEC-ICP-MS; assay type: in vitro ADME; settings: 37 °C
T1 construct: from tissue; host or cells: fetal calf serum (whole serum)
Description: To ascertain the actual binding target, the binding rate and the stability of the formed species under biological conditions, the compounds were incubated with fetal calf serum at 37 °C and sulfur- and platinum-containing (macro)molecules were measured with size exclusion chromatography inductively coupled plasma mass spectrometry (SEC-ICP-MS) over 21 h. Already at the first scan (∼5–10 min after incubation) ∼50% of the maleimide-containing compounds 7–8 and 11–12 were bound to the albumin fraction at 7.6 min (see Table S11 ^† for the corresponding size ladder). At the next time point after 140 min, in all cases, >80% of the drug was bound to albumin. […] Thus, the fast as well as specific binding to serum albumin was verified. […]
To determine the stability, especially of the maleimide-function, 0.5 mM solutions of the complexes were prepared in triple distilled water and measured repeatedly over several hours. For determination of the binding rate towards human serum albumin (HSA), freshly prepared 1 mM aqueous solutions of a compound and HSA were mixed 1:1 and also measured repeatedly over several hours. […] The loss of the complexes was monitored via UV-VIS detector at 225 nm and evaluated by the decrease of the compound […]
For sample preparation compounds 7– 14 were incubated separately in FCS. […] The samples were then stored in the autosampler at 37°C for 21 h and analyzed […]

[2] = Stability in aqueous solution by analytical RP-HPLC; assay type: physicochemical
Description: The stability of the compounds in aqueous solution was monitored over several hours using analytical RP-HPLC. […] Thus, the hydrolysis can be clearly attributed to the maleimide moiety.
(§1) RP-HPLC stability and binding studies
(§2) To determine the stability, especially of the maleimide-function, 0.5 mM solutions of the complexes were prepared in triple distilled water and measured repeatedly over several hours. For determination of the binding rate towards human serum albumin (HSA), freshly prepared 1 mM aqueous solutions of a compound and HSA were mixed 1:1 and also measured repeatedly over several hours. All studies were carried out using a reversed-phase Waters XBridge C18 column on a Dionex Summit System. Milli-Q water, containing 0.1% formic acid, and methanol were used as eluents and a standard gradient from 5–95% methanol in 20 minutes was chosen. The autosampler, where the samples were incubated, was temperature controlled at 20°C and the column at 25°C. The loss of the complexes was monitored via UV-VIS detector at 225 nm and evaluated by the decrease of the compound […]
(§3) For sample preparation compounds 7– 14 were incubated separately in FCS. […] The samples were then stored in the autosampler at 37°C for 21 h and analyzed

[3] = target: T2, human serum albumin (HSA) (Homo sapiens, UniProt P02768); assay: Albumin-binding rate by RP-HPLC (decrease of unbound drug peak area); settings: 1 eq. of HSA used
T2 construct: purchased Sigma Aldrich
Description: Next, the binding of the maleimide-functionalized complexes to the thiol group of human serum albumin (HSA) was investigated. Therefore, compounds 7–8 and 11–12 were incubated with HSA and the decrease of the peak area of the unbound drug was monitored (Fig. 2B, Table S19 ^†).
as §1, §2, §3

[4] = tested on: CT-26 tumors; assay: Histological evaluation (H/E) of apoptotic and mitotic cell fractions in CT-26 tumors; assay type: in vivo, BALB/c mice; settings: tumors of male mice, day 12, H/E stain, counting
Description: In order to better understand the observed differences in the activity of our compound panel, in a second experiment male CT-26-bearing animals were sacrificed on day 12 (24 h after the last treatment) and paraffin-embedded tumors were evaluated by H/E stain. […] In addition, as depicted in Fig. 5, the tumors of mice treated with 12 were clearly smaller than the ones of the other treatment groups. […] Furthermore, the histological evaluation of tumor material was only possible for 3 animals because the fourth mouse already experienced a complete remission at time of section (which means that the best responding animal was not available for evaluation). […]
mice was performed only with the endpoint overall survival. For cisplatin and 8, the […]
was performed. […]
experimental group contained four animals). Tumor volumes were calculated as described in the experimental part. […]
Figure S5: Apoptosis and mitosis levels in tumors after the treatment with compound 8, 11 and 12 in comparison to cis- and oxaliplatin: CT-26 cells were injected subcutaneously into the right flank of male BALB/c mice. […] The fractions of apoptotic and mitotic cells were evaluated by counting (4 pictures per sample, at least 300 cells per picture were counted). […]
The statistical significance was calculated by One-Way Anova and is indicated with asterisks (* P < 0.05; ** P < 0.01; *** P < 0.001).

[5] = tested on: subcutaneous CT-26 tumors
Description: Mice were treated twice a week (Monday and Thursday) i.v. with concentrations equimolar to 9 mg kg^–1 oxaliplatin (each experimental group contained four animals). […] The experiment was performed twice with two different endpoints: overall survival vs. tissue collection 12 days after the first treatment. […] Data are means ± SEM.
CT-26 cells (5x105 in serum-free medium) were injected subcutaneously into the right flank
of Balb/c mice (gender is indicated in the respective figure). Animals were treated with the
indicated oxaliplatin-releasing drugs at concentrations equimolar to 9 mg/kg oxaliplatin (i.v.;
12 was dissolved in 0.9% NaCl solution, 11 in 10% propylene glycol/0.9% NaCl, and
oxaliplatin in 5% glucose solution according to the clinical protocol) twice a week (Mondays
and Thursdays). In case of cisplatin-releasing prodrugs, a dose equimolar to 3 mg/kg cisplatin
was applied twice a week. For all experiments four animals per treatment group were used.
Animals were controlled for distress development every day and tumor size was assessed
regularly by caliper measurement. Tumor volume was calculated using the formula: (length ×
width2). The experiments with oxaliplatin, 11 and 12 in male mice were performed twice
with two different endpoints: 1) overall survival and 2) collection of organ and tumor
In the second experiments, tumors were
formalin-fixed and paraffin-embedded.
Results were analyzed and illustrated and statistical analyses performed (as indicated) with
GraphPad Prism (GraphPad Software version 5,San Diego, CA).

[6] = Reduction with ascorbic acid monitored by RP-HPLC and 1H-NMR; assay type: physicochemical; settings: 1 mM complex, 10 equivalents ascorbic acid, phosphate buffer pH = 7.4
Description: As one explanation of the observed differences between the compounds might be altered reducibility, we investigated the reduction rate in the presence of ascorbic acid in phosphate-buffered solution at pH = 7.4 using NMR spectroscopy and HPLC measurements. To reduce the number of additional signals from hydrolyzed maleimide species in the spectra, only the succinimide-functionalized compounds 9–10 and 13–14 were evaluated in these experiments (Fig. 7 and S6 ^†). For both NMR and HPLC measurements, the same complex concentrations (1 mM) and 10 equivalents ascorbic acid were used. […] Overall, there is a strong correlation between the reduction data and the in vivo activity. As such, the fast reduction of the cisplatin derivatives correlates with the low in vivo activity of 8 and relatively low plasma levels after 24 h. […]
1 mM solutions of the succinimide derivatives 9– 10 and 13–14 in 100 mM phosphate buffer (pH=7.4) were freshly prepared, mixed with 10 mM solutions of ascorbic acid in 100 mM phosphate buffer (pH=7.4) and measured by RP-HPLC every hour for up to 24 h. […] The reduction of the compound was monitored via UV-VIS detector at 225 nm and evaluated by the decrease of the initial compound peak area. […]

[7] = female BALB/c mice, 9 mg kg^–1 i.v. twice a week

T1 sequence (P02769 25-607): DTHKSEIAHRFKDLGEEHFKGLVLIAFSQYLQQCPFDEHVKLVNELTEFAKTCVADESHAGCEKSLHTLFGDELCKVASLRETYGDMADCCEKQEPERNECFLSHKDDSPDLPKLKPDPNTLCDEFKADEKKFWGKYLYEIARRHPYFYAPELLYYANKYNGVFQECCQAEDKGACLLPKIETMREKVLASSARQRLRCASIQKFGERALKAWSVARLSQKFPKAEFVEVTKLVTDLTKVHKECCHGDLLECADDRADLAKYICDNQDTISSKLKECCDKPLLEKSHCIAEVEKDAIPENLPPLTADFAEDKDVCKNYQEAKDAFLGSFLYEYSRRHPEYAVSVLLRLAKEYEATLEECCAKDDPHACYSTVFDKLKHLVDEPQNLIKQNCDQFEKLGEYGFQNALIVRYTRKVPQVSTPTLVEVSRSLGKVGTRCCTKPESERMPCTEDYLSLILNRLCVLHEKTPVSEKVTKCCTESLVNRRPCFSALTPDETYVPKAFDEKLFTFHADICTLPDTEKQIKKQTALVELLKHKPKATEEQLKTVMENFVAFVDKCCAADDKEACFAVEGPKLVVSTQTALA
T2 sequence (P02768 25-609): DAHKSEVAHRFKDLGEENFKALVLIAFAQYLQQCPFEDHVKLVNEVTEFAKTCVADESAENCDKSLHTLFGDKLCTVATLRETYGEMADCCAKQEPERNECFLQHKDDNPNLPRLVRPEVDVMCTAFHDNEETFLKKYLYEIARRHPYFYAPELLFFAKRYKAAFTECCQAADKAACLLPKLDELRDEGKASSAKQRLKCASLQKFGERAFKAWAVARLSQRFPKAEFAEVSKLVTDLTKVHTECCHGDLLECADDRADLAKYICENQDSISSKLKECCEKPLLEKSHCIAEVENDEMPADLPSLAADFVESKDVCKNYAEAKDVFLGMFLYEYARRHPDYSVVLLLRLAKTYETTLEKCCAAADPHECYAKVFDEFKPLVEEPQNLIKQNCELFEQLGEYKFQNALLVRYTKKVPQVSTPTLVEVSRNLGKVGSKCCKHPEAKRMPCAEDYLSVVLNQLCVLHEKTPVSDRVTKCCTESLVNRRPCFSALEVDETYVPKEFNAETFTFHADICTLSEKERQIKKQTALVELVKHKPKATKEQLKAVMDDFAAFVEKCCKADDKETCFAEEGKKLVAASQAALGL

## C[O][Pt]([NH2])([NH2])([Cl])([Cl])[O]C(=O)NCCN1C(=O)C=CC1=O [Compound 7, (OC-6-44)-Diamminedichloridomethoxido[2-(2,5-dioxo-2,5-dihydro-1H-pyrrol-1-yl)ethylcarbamato]platinum(IV)]
[1]; 100 µM, first scan (∼5–10 min after incubation)
  drug bound to the albumin fraction: ~50%
[2]; aqueous solution, 20°C
  hydrolysis in aqueous solution: less than 1 % h^–1
[3]
  Albumin-binding half-life λ1/2: 5.1 h

## O=C1[O][Pt]2([NH][C@@H]3CCCC[C@H]3[NH]2)[O]C1=O [oxaliplatin]
[4]
  apoptotic cell fraction in tumors: highest
[5]; [7]
  adverse effects: very strong adverse effects
  anticancer activity: widely ineffective
[5]; male BALB/c mice, i.v. twice a week, equimolar to 9 mg kg^–1 oxaliplatin
  onset of activity: 8 days

## CC(=O)[O][Pt]([NH2])([NH2])([Cl])([Cl])[O]C(=O)NCCN1C(=O)CCC1=O [Compound 10]
[6]
  reduction by ascorbic acid, cisplatin-derived vs oxaliplatin-based: reduced much faster
  stability towards reduction, acetato vs methoxido ligand: more stable
[1]; during 21 h
  protein binding ability: negligible protein binding ability
[2]; over a period of 24 hours
  changes in aqueous solution: no changes
